Read-outs that look alike come from different tables or passages of the source.
Biological target: GABARAPL2 (Homo sapiens, UniProt P60520)
Settings: for 3D Mapping code: molar ratio 1:2; for CSP: GABARAPL2:ligand molar ratio 1:2

Sequence of GABARAPL2 (P60520 whole entry): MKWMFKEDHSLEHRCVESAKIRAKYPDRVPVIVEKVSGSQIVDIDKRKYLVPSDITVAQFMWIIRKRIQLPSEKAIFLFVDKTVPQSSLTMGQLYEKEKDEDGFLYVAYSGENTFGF

**Q.** Which “3D Mapping code” value (residue G38) does the source give for `O=C1Nc2ccc(I)cc2C1=Cc1cc(Br)c(O)c(Br)c1` [compound 4] here?
**A.** Light green

**Q.** And the CSP (residue G103)?
**A.** 0.019 ppm

**Q.** What about the CSP (residue G111) of the same molecule?
**A.** 0.010 ppm

**Q.** What about the CSP (residue G116) of the same molecule?
**A.** 0.007 ppm

**Q.** What about the CSP (residue H9) of the same molecule?
**A.** 0.008 ppm

**Q.** And the CSP (residue H13)?
**A.** 0.031 ppm

**Q.** And the “3D Mapping code” value (residue H13)?
**A.** Light green

**Q.** And the CSP (residue I21)?
**A.** 0.054 ppm

**Q.** And the “3D Mapping code” value (residue I21)?
**A.** Orange

**Q.** What about the CSP (residue I32) of the same molecule?
**A.** 0.057 ppm

**Q.** And the “3D Mapping code” value (residue I32)?
**A.** Blue

**Q.** And the CSP (residue I41)?
**A.** 0.00428 ppm

**Q.** And the CSP (residue I44)?
**A.** 0.029 ppm

**Q.** What about the “3D Mapping code” value (residue I44) of the same molecule?
**A.** Light green

**Q.** And the CSP (residue I55)?
**A.** 0.026 ppm

**Q.** What about the “3D Mapping code” value (residue I55) of the same molecule?
**A.** Light green

**Q.** And the CSP (residue I63)?
**A.** 0.014 ppm

**Q.** And the CSP (residue I64)?
**A.** 0.021 ppm

**Q.** And the CSP (residue I68)?
**A.** 0.021 ppm

**Q.** And the CSP (residue I76)?
**A.** 0.004 ppm

**Q.** And the CSP (residue K2)?
**A.** 0.017 ppm

**Q.** And the CSP (residue K6)?
**A.** 0.023 ppm

**Q.** What about the CSP (residue K20) of the same molecule?
**A.** 0.058 ppm

**Q.** What about the “3D Mapping code” value (residue K20) of the same molecule?
**A.** Orange

**Q.** And the CSP (residue K24)?
**A.** 0.015 ppm

**Q.** And the CSP (residue K35)?
**A.** 0.014 ppm

**Q.** What about the CSP (residue K46, estimated) of the same molecule?
**A.** 0.050 ppm

**Q.** And the “3D Mapping code” value (residue K46)?
**A.** Blue

**Q.** And the CSP (residue K48)?
**A.** 0.168 ppm

**Q.** What about the “3D Mapping code” value (residue K48) of the same molecule?
**A.** Blue

**Q.** What about the CSP (residue K66) of the same molecule?
**A.** 0.020 ppm

**Q.** What about the CSP (residue K74) of the same molecule?
**A.** 0.011 ppm

**Q.** And the CSP (residue K97)?
**A.** 0.012 ppm

**Q.** What about the CSP (residue K99) of the same molecule?
**A.** 0.018 ppm

**Q.** And the CSP (residue L11)?
**A.** 0.016 ppm

**Q.** And the CSP (residue L50)?
**A.** 0.096 ppm

**Q.** What about the “3D Mapping code” value (residue L50) of the same molecule?
**A.** Blue

**Q.** What about the CSP (residue L70) of the same molecule?
**A.** 0.006 ppm

**Q.** What about the CSP (residue L78) of the same molecule?
**A.** 0.006 ppm

**Q.** What about the CSP (residue L105) of the same molecule?
**A.** 0.060 ppm

**Q.** And the “3D Mapping code” value (residue L105)?
**A.** Orange

**Q.** And the CSP (residue M1)?
**A.** 0.010 ppm

**Q.** What about the CSP (residue M61) of the same molecule?
**A.** 0.015 ppm

**Q.** And the CSP (residue N113)?
**A.** 0.00264 ppm

**Q.** And the CSP (residue P26, estimated)?
**A.** 0.050 ppm

**Q.** What about the “3D Mapping code” value (residue P26) of the same molecule?
**A.** Light green

**Q.** And the CSP (residue P30, estimated)?
**A.** 0.110 ppm

**Q.** And the “3D Mapping code” value (residue P30)?
**A.** Blue

**Q.** And the CSP (residue P52, estimated)?
**A.** 0.070 ppm

**Q.** And the “3D Mapping code” value (residue P52)?
**A.** Blue

**Q.** And the CSP (residue P71, estimated)?
**A.** 0.010 ppm

**Q.** What about the CSP (residue Q40) of the same molecule?
**A.** 0.017 ppm

**Q.** What about the CSP (residue Q59) of the same molecule?
**A.** 0.016 ppm

**Q.** And the CSP (residue Q69)?
**A.** 0.020 ppm

**Q.** What about the CSP (residue R14) of the same molecule?
**A.** 0.091 ppm

**Q.** What about the “3D Mapping code” value (residue R14) of the same molecule?
**A.** Orange

**Q.** And the CSP (residue R22)?
**A.** 0.083 ppm

**Q.** What about the “3D Mapping code” value (residue R22) of the same molecule?
**A.** Orange

**Q.** And the CSP (residue R28)?
**A.** 0.064 ppm

**Q.** And the “3D Mapping code” value (residue R28)?
**A.** Orange

**Q.** And the CSP (residue R47, estimated)?
**A.** 0.100 ppm

**Q.** And the “3D Mapping code” value (residue R47)?
**A.** Blue

**Q.** What about the CSP (residue R65) of the same molecule?
**A.** 0.008 ppm

**Q.** And the CSP (residue R67)?
**A.** 0.00158 ppm

**Q.** What about the CSP (residue S10) of the same molecule?
**A.** 0.019 ppm

**Q.** And the CSP (residue S18)?
**A.** 0.021 ppm

**Q.** And the CSP (residue S37)?
**A.** 0.030 ppm

**Q.** And the “3D Mapping code” value (residue S37)?
**A.** Light green

**Q.** And the CSP (residue S39)?
**A.** 0.017 ppm

**Q.** What about the CSP (residue S53) of the same molecule?
**A.** 0.076 ppm

**Q.** What about the “3D Mapping code” value (residue S53) of the same molecule?
**A.** Orange

**Q.** And the CSP (residue S72)?
**A.** 0.004 ppm

**Q.** And the CSP (residue S110)?
**A.** 0.010 ppm

**Q.** And the CSP (residue T56)?
**A.** 0.008 ppm

**Q.** What about the CSP (residue T114) of the same molecule?
**A.** 0.00144 ppm

**Q.** What about the CSP (residue V16) of the same molecule?
**A.** 0.051 ppm

**Q.** And the “3D Mapping code” value (residue V16)?
**A.** Light green

**Q.** What about the CSP (residue V29) of the same molecule?
**A.** 0.102 ppm

**Q.** What about the “3D Mapping code” value (residue V29) of the same molecule?
**A.** Blue

**Q.** What about the CSP (residue V31) of the same molecule?
**A.** 0.128 ppm

**Q.** And the “3D Mapping code” value (residue V31)?
**A.** Blue

**Q.** And the CSP (residue V33)?
**A.** 0.064 ppm

**Q.** What about the “3D Mapping code” value (residue V33) of the same molecule?
**A.** Orange

**Q.** What about the CSP (residue V36) of the same molecule?
**A.** 0.024 ppm

**Q.** And the CSP (residue V42)?
**A.** 0.00232 ppm

**Q.** What about the CSP (residue V51) of the same molecule?
**A.** 0.077 ppm

**Q.** What about the “3D Mapping code” value (residue V51) of the same molecule?
**A.** Blue

**Q.** And the CSP (residue V57)?
**A.** 0.024 ppm

**Q.** And the CSP (residue V80)?
**A.** 0.028 ppm

**Q.** What about the “3D Mapping code” value (residue V80) of the same molecule?
**A.** Light green

**Q.** And the CSP (residue V107)?
**A.** 0.039 ppm

**Q.** And the “3D Mapping code” value (residue V107)?
**A.** Light green

**Q.** And the CSP (residue W3)?
**A.** 0.022 ppm

**Q.** And the CSP (residue W62)?
**A.** 0.016 ppm

**Q.** And the CSP (residue Y25)?
**A.** 0.085 ppm

**Q.** And the “3D Mapping code” value (residue Y25)?
**A.** Orange

**Q.** And the CSP (residue Y49)?
**A.** 0.148 ppm

**Q.** And the “3D Mapping code” value (residue Y49)?
**A.** Blue

**Q.** And the CSP (residue Y106)?
**A.** 0.097 ppm

**Q.** What about the “3D Mapping code” value (residue Y106) of the same molecule?
**A.** Orange

**Q.** What about the CSP (residue Y109) of the same molecule?
**A.** 0.012 ppm

Reference: publication PMC11589570, “Critical assessment of LC3/GABARAP ligands used for degrader development and ligandability of LC3/GABARAP binding pockets” (Nature Communications, 2024)
